Laboratory results: publication PMC9486808 (ACS Chemical Biology, 2022)
“And” between values parts separate entries of the source, which are not always exact repeats. Identical values can stand only once. Starred links: 1 amine or outer side, 2 acyl side, 3 side chain; linkers in the order of their positions; H or OH if unused. Positions of bridges follow the written chain, without caps; N, C: chain ends. Non-standard residues stand in square brackets, D forms with d. Residues, ends and D or L forms follow the SMILES beside them. Groups on a side chain read outwards from the residue. *: point of attachment. X1 = O=C([C@H](CCn1nnc2c1-c1ccccc1CN([*:3])c1ccccc1-2)N[*:1])[*:2]; 6FAM = O=C1OC2(c3ccc(O)cc3Oc3cc(O)ccc32)c2cc(C(=O)*)ccc21; AEEA = NCCOCCOCC(=O)O; Ahx = NCCCCCC(=O)O

Experiments:
H1 ectodomain = H1 ectodomain (Influenza A virus, UniProt C3W5S1); assay: biochemical; format: binding, Influenza A virus A/California/04/2009 (H1N1)
H1 HA = H1 HA (Influenza A virus, UniProt C3W5S1); format: binding, Influenza A virus A/California/04/2009 (H1N1)
[1] = test system: H1N1pdm09 (A/Netherlands/602/2009)
[2] = target: H1 ectodomain of A/California/04/2009 (H1N1) (Influenza A virus, UniProt C3W5S1); format: binding, Influenza A virus A/California/04/2009 (H1N1)
H1 ectodomain of A/California/04/2009 (H1N1), sequence (C3W5S1 entry or part of it, added parts left off): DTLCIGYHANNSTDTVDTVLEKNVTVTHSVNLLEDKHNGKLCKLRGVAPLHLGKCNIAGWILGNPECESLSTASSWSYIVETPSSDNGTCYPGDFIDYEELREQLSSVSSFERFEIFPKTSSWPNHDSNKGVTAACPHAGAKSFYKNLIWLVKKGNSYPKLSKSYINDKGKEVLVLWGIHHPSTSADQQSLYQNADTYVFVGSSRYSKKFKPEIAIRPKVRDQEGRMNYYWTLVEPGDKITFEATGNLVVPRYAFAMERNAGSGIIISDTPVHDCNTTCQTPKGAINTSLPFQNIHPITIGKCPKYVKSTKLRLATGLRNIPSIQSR

H1 ectodomain, sequence (C3W5S1 entry or part of it, added parts left off): as above

## CC(C)C[C@H](NC(=O)[C@@H]1CSCC(=O)N[C@@H](Cc2ccc(O)cc2)C(=O)N[C@@H](Cc2c[nH]c3ccccc23)C(=O)N[C@@H](Cc2c[nH]cn2)C(=O)N[C@@H](CCCCN)C(=O)N[C@@H](CC(N)=O)C(=O)N[C@@H](CCCCN)C(=O)N[C@@H](Cc2ccc(O)cc2)C(=O)N[C@@H](C(C)C)C(=O)N[C@@H](CC(C)C)C(=O)N[C@@H]([C@@H](C)O)C(=O)N[C@@H](Cc2ccc(O)cc2)C(=O)N[C@@H](CO)C(=O)N1)C(=O)N[C@@H](Cc1ccccc1)C(=O)N[C@@H](C)C(=O)N[C@@H](C)C(=O)NCCOCCOCC(=O)N[C@@H](CCn1nnc2c1-c1ccccc1CN(C(=O)CCCCCNC(=O)c1ccc3c(c1)C1(OC3=O)c3ccc(O)cc3Oc3cc(O)ccc31)c1ccccc1-2)C(=O)NCC(=O)N[C@@H](CC(=O)O)C(=O)N[C@@H](Cc1ccc(O)cc1)C(=O)N[C@@H](CCCCN)C(=O)N[C@@H](CC(=O)O)C(=O)N[C@@H](CC(=O)O)C(=O)N[C@@H](CC(=O)O)C(=O)N[C@@H](CC(=O)O)C(=O)N[C@@H](CCCCN)C(=O)NCC(N)=O [L2FAM] ({CH2CO}-YWHKNKYVLTYSCLFAA[AEEA][X1]([Ahx-6FAM])GDYKDDDDKG-NH2; thioether N-13)
H1 ectodomain
  Hillslope: 0.91 and 0.70

## CC(C)[C@@H]1NC(=O)[C@H](Cc2c[nH]c3ccccc23)NC(=O)[C@H](CCCNC(=N)N)NC(=O)[C@H](Cc2ccc(O)cc2)NC(=O)CSC[C@@H](C(=O)NCCOCCOCC(=O)N[C@@H](CCn2nnc3c2-c2ccccc2CN(C(=O)CCCCCNC(=O)c2ccc4c(c2)C2(OC4=O)c4ccc(O)cc4Oc4cc(O)ccc42)c2ccccc2-3)C(=O)NCC(=O)N[C@@H](CC(=O)O)C(=O)N[C@@H](Cc2ccc(O)cc2)C(=O)N[C@@H](CCCCN)C(=O)N[C@@H](CC(=O)O)C(=O)N[C@@H](CC(=O)O)C(=O)N[C@@H](CC(=O)O)C(=O)N[C@@H](CC(=O)O)C(=O)N[C@@H](CCCCN)C(=O)NCC(N)=O)NC(=O)[C@H](C(C)C)NC(=O)[C@H](C(C)C)NC(=O)[C@H](Cc2ccccc2)NC(=O)[C@H](Cc2ccc(O)cc2)NC(=O)[C@@H]2CCCN2C(=O)[C@H](CCC(=O)O)NC(=O)[C@H](CO)NC(=O)[C@H](Cc2ccccc2)NC(=O)[C@H](Cc2ccccc2)NC(=O)[C@H](CO)NC(=O)[C@H]([C@@H](C)O)NC(=O)[C@H](Cc2c[nH]c3ccccc23)NC1=O [L4FAM] ({CH2CO}-YRWVWTSFFSEPYFVVC[AEEA][X1]([Ahx-6FAM])GDYKDDDDKG-NH2; thioether N-17)
H1 ectodomain
  Hillslope: 0.96 and 0.76

## CC[C@H](C)[C@@H]1NC(=O)[C@H](CCCCN)NC(=O)[C@H](CO)NC(=O)[C@H](Cc2c[nH]c3ccccc23)NC(=O)[C@H](Cc2ccc(O)cc2)NC(=O)[C@H]([C@@H](C)CC)NC(=O)[C@H](CCCCN)NC(=O)[C@H](CC(C)C)NC(=O)[C@@H](Cc2ccc(O)cc2)NC(=O)CSC[C@@H](C(=O)NCCOCCOCC(=O)N[C@@H](CCn2nnc3c2-c2ccccc2CN(C(=O)CCCCCNC(=O)c2ccc4c(c2)C2(OC4=O)c4ccc(O)cc4Oc4cc(O)ccc42)c2ccccc2-3)C(=O)NCC(=O)N[C@@H](CC(=O)O)C(=O)N[C@@H](Cc2ccc(O)cc2)C(=O)N[C@@H](CCCCN)C(=O)N[C@@H](CC(=O)O)C(=O)N[C@@H](CC(=O)O)C(=O)N[C@@H](CC(=O)O)C(=O)N[C@@H](CC(=O)O)C(=O)N[C@@H](CCCCN)C(=O)NCC(N)=O)NC(=O)[C@H](Cc2c[nH]c3ccccc23)NC(=O)[C@H](CCC(=O)O)NC(=O)[C@H](CO)NC(=O)[C@H](C(C)C)NC(=O)[C@H](CC(C)C)NC(=O)CNC(=O)[C@H](Cc2c[nH]cn2)NC1=O [S3FAM] ({CH2CO}-[dY]LKIYWSKIHGLVSEWC[AEEA][X1]([Ahx-6FAM])GDYKDDDDKG-NH2; thioether N-17)
H1 ectodomain
  Hillslope: 1.02 and 0.94

## CC(C)C[C@@H]1NC(=O)[C@H](C(C)C)NC(=O)[C@@H](Cc2ccc(O)cc2)NC(=O)CSC[C@@H](C(=O)NCCOCCOCC(=O)N[C@@H](CCn2nnc3c2-c2ccccc2CN(C(=O)CCCCCNC(=O)c2ccc4c(c2)C2(OC4=O)c4ccc(O)cc4Oc4cc(O)ccc42)c2ccccc2-3)C(=O)NCC(=O)N[C@@H](CC(=O)O)C(=O)N[C@@H](Cc2ccc(O)cc2)C(=O)N[C@@H](CCCCN)C(=O)N[C@@H](CC(=O)O)C(=O)N[C@@H](CC(=O)O)C(=O)N[C@@H](CC(=O)O)C(=O)N[C@@H](CC(=O)O)C(=O)N[C@@H](CCCCN)C(=O)NCC(N)=O)NC(=O)[C@H](C(C)C)NC(=O)[C@H](Cc2c[nH]c3ccccc23)NC(=O)[C@H](Cc2c[nH]cn2)NC(=O)[C@H]([C@@H](C)O)NC(=O)[C@H](C)NC(=O)[C@H](CC(C)C)NC(=O)[C@H]([C@@H](C)O)NC(=O)CNC(=O)[C@H](Cc2c[nH]cn2)NC(=O)[C@H](CC(=O)O)NC(=O)[C@H](Cc2c[nH]c3ccccc23)NC(=O)[C@H](CCCNC(=N)N)NC(=O)[C@H](Cc2ccccc2)NC1=O [S5FAM] ({CH2CO}-[dY]VLFRWDHGTLATHWVC[AEEA][X1]([Ahx-6FAM])GDYKDDDDKG-NH2; thioether N-17)
H1 ectodomain
  Hillslope: 0.97 and 0.86

## Cyclo(Ac-YITRFTPWPKLYPVWDC)G-NH2 (Ac-YITRFTPWPKLYPVWDCG-NH2; bridge N-17; also: cyclized, linkage type not given here) [L1]
H1 HA
  ΔTm (°C), purified peptide: 3.8 °C
[1]
  Inhibition of infection at a single concentration: strong inhibition of infection

## Cyclo(Ac-YRFLWSSFSSQPSWVHC)G-NH2 [B5]
H1 HA
  ΔTm (°C), crude peptide: 1.4 °C

## Cyclo(Ac-YSNNRNWLPHDWQVLYC)G-NH2 [B6]
H1 HA
  ΔTm (°C), crude peptide: 1.6 °C

## Cyclo(Ac-YSYFDVNTIFWFSPFC)CG-NH2 [S9]
H1 HA
  ΔTm (°C), crude peptide: 0.0 °C

## Cyclo(Ac-YVQIFDRYGIYSGKWSC)G-NH2 [B8]
H1 HA
  ΔTm (°C), crude peptide: 1.0 °C

## Cyclo(Ac-YYKALWINATFYQSLVC)G-NH2 [R5]
H1 HA
  ΔTm (°C), crude peptide: 1.2 °C

## Cyclo(Ac-YYSWFEATGRFRAIFSC)G-NH2 [R4]
H1 HA
  ΔTm (°C), crude peptide: 1.4 °C

## Cyclo(Ac-yAFWIRWTNHYRSGFTC)G-NH2 [B4]
H1 HA
  ΔTm (°C), crude peptide: 2.0 °C
[1]
  Inhibition of infection at a single concentration: strong inhibition of infection

## Cyclo(Ac-yFLC)TKWNYGRWYLFYCG-NH2 [R1]
H1 HA
  ΔTm (°C), crude peptide: 1.4 °C

## Cyclo(Ac-yFVNWYWHGEKLFYRYC)G-NH2 [R2]
H1 HA
  ΔTm (°C), crude peptide: 2.2 °C

## Cyclo(Ac-yIRLFWINGNLVSEWNC)G-NH2 [S2]
H1 HA
  ΔTm (°C), crude peptide: 4.4 °C
[2]
  Binding region in the HA stem (HDX-MS): aa 369–387
[1]
  Inhibition of infection at a single concentration: strong inhibition of infection

## Cyclo(Ac-yIVLAWKGHYLESRWTC)G-NH2 [S8]
H1 HA
  ΔTm (°C), crude peptide: 1.6 °C

## Cyclo(Ac-yLIWPSFNQNAKIIFPC)G-NH2 [B9]
H1 HA
  ΔTm (°C), crude peptide: 3.6 °C

## Cyclo(Ac-yRQWFYLGKYYC)TWSCCG-NH2 [S4]
H1 HA
  ΔTm (°C), crude peptide: 0.0 °C

## Cyclo(Ac-yRVFNISWDGEYRSWWC)G-NH2 [B3]
H1 HA
  ΔTm (°C), crude peptide: 0.4 °C

## Cyclo(Ac-ySYFIWANFQTEPYFVC)G-NH2 [B2]
H1 HA
  ΔTm (°C), crude peptide: 0.6 °C
[2]
  Binding region in the HA stem (HDX-MS): aa 369–387
[1]
  Inhibition of infection at a single concentration: strong inhibition of infection

## Cyclo(Ac-yTYYVLLQRWPPVWAPC)G-NH2 [B1]
H1 HA
  ΔTm (°C), crude peptide: 2.0 °C
[2]
  Binding region in the HA stem (HDX-MS): aa 369–387
[1]
  Inhibition of infection at a single concentration: strong inhibition of infection

## Cyclo(Ac-yVIAIRPFSQLCWRWVC)G-NH2 [S7]
H1 HA
  ΔTm (°C), crude peptide: 0.4 °C

## Cyclo(Ac-yVKIVWFEGTLNTTWFC)G-NH2 [S6]
H1 HA
  ΔTm (°C), crude peptide: 1.6 °C
